Test results from patent US20260078114A1, “COMPOUND USED AS INHIBITOR OF CDK4 KINASE AND USE THEREOF” (TYK MEDICINES, INC., priority 2022, published 2026).
Read-outs that look alike come from different tables or passages of the source.

Assays:
[1] = test system: Human breast cancer cell MCF-7; assay: Cellular antiproliferative assay (MTT, 5 days), MCF-7; assay type: cell-based; details: MCF-7 cells, 5 days incubation
Experimental: (§1) Human breast cancer cell MCF-7, ovarian cancer cell A2780, human mantle cell lymphoma cell JEKO-1. DMEM medium (Bio-Channel), DMSO (dimethyl sulfoxide), MTT (thiazolyl blue), 0.25% EDTA-Tripsin (tryptic digest), 1×PBS (phosphate buffer, PH7.2), 96-well plate (Corning), fetal bovine serum (FBS), 10,000 U/mL penicillin-G/streptomycin, high-speed cryo-centrifuge (EPPENDORF 5810R), enzyme-linked immunoassay (Tecan Spark).
(§2) • A) Tumor cells were cultured in DMEM (high sugar with 10% FBS and 100 U/mL penicillin-G/streptomycin) at 37° C., 5% CO2 and saturated humidity until 80-90% dense. • B) Removed the culture medium from 10 cm Petri dishes; • C) Rinsed the cells once with 10 ml 1×PBS; • D) Added 4 ml 0.25% EDTA-Tripsin into 37° C., 5% CO2 incubator for trypsin digestion for 5 minutes, transferred to 15 ml centrifuge tube, centrifuged at 200 g for 5 minutes, discarded the supernatant to get cell precipitate; • E) Resuspended with 4 ml DMEM medium, counted and adjust to 50,000 cells/ml. • F) Added cell suspension to 96-well plate with 100 μL per well volume and incubated overnight at 37° C., 5% CO2 incubator.
(§3) • A) Preparation of gradient dilution solution of the tested compound: the test compound was configured into 1 mM reservoir solution.
(§4) • A) Taking the cell culture plate and adding 10 μL of 5 mg/ml MTT in the biosafety cabinet; • B) Putting the cell culture plate back into the incubator and continued incubation for 3 hours; • C) Taking the cell culture plate and removing the culture medium, adding 100 μL isopropanol (containing 0.4 mM HCl, 0.1% NP-40), and shaking the bed at room temperature for 30 min; and • D) Determining the absorbance value by selecting 570 nm on a TECAN enzyme-linked immunoassay detector.
(§5) The % Cell Viability was calculated using the following formula:
(§6) [formula] • Lum_HC: 0.1% DMSO control cell reading • Lum_Sample: cell readings with compound added • Lum_LC: Blank medium reading

[2] = test system: human mantle cell lymphoma cell JEKO-1; assay: Cellular antiproliferative assay (MTT, 5 days), JEKO-1; assay type: cell-based; details: JEKO-1 cells, 5 days incubation
Experimental: as §1, §2, §3, §4, §5, §6

[3] = test system: ovarian cancer cell A2780; assay: Cellular antiproliferative assay (MTT, 5 days), A2780; assay type: cell-based, human; details: A2780 cells, 5 days incubation
Experimental: as §1, §2, §3, §4, §5, §6

CDK6/CyclinD3 = CDK6/CyclinD3 (Homo sapiens, UniProt Q00534); assay: Kinase activity test (mobility shift assay, EZ Reader), CDK6; assay type: biochemical; details: CDK6/CyclinD3 5.00 nM, ATP 350 μM, FL-Peptide34
CDK4/CycD1 = CDK4/CycD1 (Homo sapiens, UniProt P11802); assay: Kinase activity test (mobility shift assay, EZ Reader), CDK4
Chain of CDK4/CycD1 (P11802 whole entry, species assumed): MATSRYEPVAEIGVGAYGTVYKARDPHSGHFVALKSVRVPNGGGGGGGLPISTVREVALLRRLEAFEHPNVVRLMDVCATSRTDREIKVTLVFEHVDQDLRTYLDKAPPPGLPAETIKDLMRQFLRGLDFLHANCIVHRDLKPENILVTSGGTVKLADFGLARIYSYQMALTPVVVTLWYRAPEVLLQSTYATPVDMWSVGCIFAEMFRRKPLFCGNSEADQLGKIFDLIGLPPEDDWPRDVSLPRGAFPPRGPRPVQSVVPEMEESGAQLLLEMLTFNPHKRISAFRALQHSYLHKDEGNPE
Chain of CDK4/CycD1 (P24385 whole entry partner, species assumed): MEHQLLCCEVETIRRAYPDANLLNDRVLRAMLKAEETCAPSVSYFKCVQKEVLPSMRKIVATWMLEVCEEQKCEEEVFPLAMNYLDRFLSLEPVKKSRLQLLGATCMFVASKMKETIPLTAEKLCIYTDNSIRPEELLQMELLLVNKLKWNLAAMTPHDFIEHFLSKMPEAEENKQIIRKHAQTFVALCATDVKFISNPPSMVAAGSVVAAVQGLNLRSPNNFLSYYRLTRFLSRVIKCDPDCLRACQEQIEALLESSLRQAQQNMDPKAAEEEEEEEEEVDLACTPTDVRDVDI
Experimental: The tested compounds were subjected to CDK4 and CDK6 kinase IC50 values test.
• (1) Preparing a 1.3× enzyme solution containing enzyme, substrate and cofactor as shown below. • (2) Adding 15 μL of 1.3× enzyme solution to each well and incubating for 30 min at room temperature. • (3) Starting the reaction by adding 5 μL of 4×ATP solution, with each test well containing the listed components and a final volume of 20 μL. • (4) Incubating for 150 minutes and then stopping the reaction by adding 75 μL of buffer (containing 0.5 M EDTA). • (5) Reading the data from each test well by EZ for analysis.
Percentage inhibition was calculated using the read conversion ratio (CR) according to the formula below:
The wells treated with DMSO were used as positive control (positive control) and the wells without enzyme were used as negative control (negative control).

Chain of CDK6/CyclinD3 (Q00534 whole entry, species assumed): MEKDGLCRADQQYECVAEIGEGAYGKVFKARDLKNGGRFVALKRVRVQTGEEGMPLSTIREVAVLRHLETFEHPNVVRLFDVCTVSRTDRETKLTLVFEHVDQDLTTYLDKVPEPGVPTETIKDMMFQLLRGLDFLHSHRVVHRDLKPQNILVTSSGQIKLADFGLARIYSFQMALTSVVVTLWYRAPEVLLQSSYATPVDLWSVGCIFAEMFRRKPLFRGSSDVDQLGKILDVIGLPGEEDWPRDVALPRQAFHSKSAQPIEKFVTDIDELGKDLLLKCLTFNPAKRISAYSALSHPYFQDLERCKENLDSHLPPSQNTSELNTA
Chain of CDK6/CyclinD3 (P30281 whole entry partner, species assumed): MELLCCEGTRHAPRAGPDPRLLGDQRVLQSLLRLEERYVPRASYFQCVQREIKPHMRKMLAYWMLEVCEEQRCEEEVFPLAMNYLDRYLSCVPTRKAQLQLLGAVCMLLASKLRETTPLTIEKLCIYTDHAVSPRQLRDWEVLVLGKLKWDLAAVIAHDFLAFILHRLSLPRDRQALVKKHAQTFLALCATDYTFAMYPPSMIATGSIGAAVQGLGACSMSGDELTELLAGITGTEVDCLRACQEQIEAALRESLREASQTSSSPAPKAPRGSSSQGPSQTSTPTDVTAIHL

SMILES	IC50 ([1]; Homo sapiens, MCF7, 120 h) [nM]	IC50 ([2]; Homo sapiens, 120 h) [nM]	IC50 ([3]; Homo sapiens, 120 h) [nM]	also measured
CC(C)n1c(N2CCOC2=O)nc2c(F)cc(-c3nc(NC4CCN(S(C)(=O)=O)CC4)ncc3Cl)cc21 [TB-26]	≤ 500	≤ 500	≤ 500	
CC(C)n1c(N2CCOC2=O)nc2c(F)cc(-c3nc(Nc4ccc(S(=O)(=O)NC5(C#N)CC5)cc4)ncc3Cl)cc21 [TB-68]				IC50 (CDK6/CyclinD3): > 500 nM
CC(C)N1CCOc2c(F)cc(-c3nc(NC4CCCC(C(=O)N(C)C)C4)ncc3Cl)cc21 (stereo not shown) [TA-14, 3-((5-chloro-4-(8-fluoro-4-isopropyl-3,4-dihydro-2H-benzo[b][1,4]oxazin-6-yl)pyrimidin-2-yl)amino)-N,N-dimethylcyclohexane-1-carboxamide]				IC50 (CDK6/CyclinD3): > 500 nM; IC50 (CDK4/CycD1): 69.4 nM
CC(C)n1c(N(C)C)nc2c(F)cc(-c3nc(N[C@H]4CC[C@H](NS(C)(=O)=O)CC4)ncc3Cl)cc21 [TB-5]	≤ 500	≤ 500	≤ 500	
CC(C)n1c(N2CCOC2=O)nc2c(F)cc(-c3nc(NC4CCN(S(C)(=O)=O)CC4)ncc3F)cc21 [TB-28]	≤ 500	≤ 500	≤ 500	
CNS(=O)(=O)N1CCC(Nc2ncc(Cl)c(-c3cc(F)c4nc5n(c4c3)CCCN5C)n2)CC1 [TB-144, 4-((5-chloro-4-(9-fluoro-1-methyl-1,2,3,4-tetrahydrobenzo[4,5]imidazo[1,2-a]pyrimidin-7-yl)pyrimidin-2-yl)amino)-N-methylpiperidine-1-sulfonamide]	≤ 500	≤ 500	≤ 500	
CN1C(=O)CC(C)(C)n2c1nc1c(F)cc(-c3cc(N[C@@H]4CCOC[C@H]4O)ncc3Cl)cc12 [TB-162]				IC50 ([1]; read-out: MCF7 IC50): ≤ 500 nM; IC50 [2]: ≤ 500 nM; IC50 [3]: ≤ 500 nM
CC(C)n1c(N(C)C)nc2c(F)cc(-c3nc(N[C@H]4CC[C@@H](NS(C)(=O)=O)CC4)ncc3Cl)cc21 [TB-4]				IC50 (CDK6/CyclinD3): > 500 nM
C[C@H]1CCN(C)c2nc3c(F)cc(-c4cc(N[C@@H]5CCOC[C@H]5O)ncc4Cl)cc3n21 [TB-149]				IC50 ([1]; read-out: MCF7 IC50): ≤ 500 nM; IC50 [2]: ≤ 500 nM; IC50 [3]: ≤ 500 nM
CC(C)n1c(N2CCCC2)nc2c(F)cc(-c3nc(N[C@@H]4CCOC[C@H]4O)ncc3Cl)cc21 [TB-11, (3S,4R)-4-((5-chloro-4-(4-fluoro-1-isopropyl-2-(pyrrolidin-1-yl)-1H-benzo[d]imidazol-6-yl)pyrimidin-2-yl)amino)tetrahydro-2H-pyran-3-ol]	≤ 500	≤ 500	≤ 500	
CN1CCCn2c1nc1c(F)cc(-c3nc(Nc4ccc(C#N)cc4)ncc3Cl)cc12 [TB-133, 4-((5-chloro-4-(9-fluoro-1-methyl-1,2,3,4-tetrahydrobenzo[4,5]imidazo[1,2-a]pyrimidin-7-yl)pyrimidin-2-yl)amino)benzonitrile]	≤ 500	≤ 500	≤ 500	
CC(C)n1c(N2CCOC2=O)nc2c(F)cc(-c3nc(NC4CCN(S(C)(=O)=O)CC4(F)F)ncc3Cl)cc21 (stereo not shown) [TB-35]	≤ 500	≤ 500	≤ 500	
C[C@@H]1C[C@H](C)n2c(nc3c(F)cc(-c4nc(N[C@@H]5CCOC[C@H]5O)ncc4Cl)cc32)N1C [TB-154]	≤ 500	≤ 500	≤ 500	
CC(C)n1c(N(C)C)nc2c(F)cc(-c3nc(NC4CCOCC4)ncc3Cl)cc21 [TB-2, 6-(5-chloro-2-((tetrahydro-2H-pyran-4-yl)amino)pyrimidin-4-yl)-4-fluoro-1-isopropyl-N,N-dimethyl-1H-benzo[d]imidazol-2-amine]	≤ 500	≤ 500	≤ 500	
CN1CCCn2c1nc1c(F)cc(-c3nc(N[C@@H]4CCOC[C@H]4O)ncc3F)cc12 [TB-42, (3S,4R)-4-((5-fluoro-4-(9-fluoro-1-methyl-1,2,3,4-tetrahydrobenzo[4,5]imidazo[1,2-a]pyrimidin-7-yl)pyrimidin-2-yl)amino)tetrahydro-2H-pyran-3-ol]	≤ 500	≤ 500	≤ 500	
